According to patent US10604476B2, “Fluorinated amide derivatives and their uses as therapeutic agents” (Trillium Therapeutics Inc., priority 2015, dated 2020):

Test system: LTG-resistant amygdala kindled seizures
Assay: Lamotrigine (LTG) resistant amygdala kindled seizure rat model
Assay type: in vivo
Settings: for Duration (sec) ± SD (afterdischarge) / N/F, number of animals active over the number tested / Seizure Score ± SEM: 0.25 hr
Text: The LTG-resistant amygdala kindled rat model is useful for not only identifying compounds effective against secondarily generalized partial seizures, but also allows for the differentiation of compounds that may be effective in therapy-resistant patients. […] Conversely, valproate can both prevent kindling development and block the expression of fully kindled seizures. The addition of the traditional ASDs, carbamazepine or lamotrigine, during the development of kindled seizures in this model will ultimately impair the effectiveness of lamotrigine against a fully expressed kindled seizure. […] This model may serve as a means to identify compounds which may be effective against therapy-resistant seizures. Anesthetized male Sprague-Dawley rats (250-300 g) are surgically implanted with an electrode into the left amygdala. Animals are then allowed to recover for one week before commencing kindling. The kindling procedure consists of delivering a 200 μAmp stimulus (suprathreshold) daily until all animals in both treatment groups display consistent Stage 4 or 5 seizures. One week after all animals are kindled, the animals receive a challenge dose of LTG (30 mg/kg, i.p.) before being stimulated to confirm the LTG sensitivity of the vehicle-treated control animals, as well as the LTG-resistance of the LTG-treated group. The animals are then allowed a washout of 3 days. On day 3 of the washout, the animals are pre-stimulated to ensure recovery of the fully kindled seizure. On day 4, kindled rats are challenged with a dose of an investigational agent (the dose that produced minimal motor impairment) and then challenged with the kindling stimulus at the predetermined TPE of the investigational drug. […] For this study, the ability of a candidate substance to reduce afterdischarge duration (ADD) and behavioral seizure scores (BSS) is quantitated by varying the dose between 0 and 100% effect. Unlike other acute seizure tests conducted by the ETSP, each kindled rat is allowed at least 3-4 days between tests to “washout” any investigational compound after testing. The average seizure scores±S.E.M. and afterdischarge duration (ADD) are noted, as are the number of animals protected from seizure (defined as a Racine score<3) over the number of animals tested.
The following procedure is used for surgical implantation of Electrodes. Male Spraque-Dawey rats are anesthetized using 1-3% isoflurane or a Ketamine/Xylazine cocktail. Ketamine is provided as 100 mg/ml solution, and dose 50 mg/kg given i.p. Xylazine is provided as 100 mg/ml solution, and dose 20 mg/kg given i.p. Mix the two solutions together in one syringe and administer i.p as one injection. Rat is monitored through surgery. If the rat is responsive to a tail pinch administer half the dose of Ketamine/xylazine or increase the isoflurane percentage. Administer buprenorphine at 0.02 mg/kg s.c. for pain management. An electric razor is used to shave the surface of the head. The rat is placed on an external heat source on the stereotaxic apparatus such that the height of the incisor bar and the positioning of the ear bars ensure consistency with the reference atlas. The entire scalp is scrubbed with betadine (3×) and wiped with alcohol. Ophthalmic ointment is applied to each eye. All instruments are sterilized via autoclave before beginning surgery. During surgery instruments are placed on a sterile drape. For subsequent surgeries on the same day, instruments can be placed into the hot bead sterilizer between surgeries. Stainless steel screws and electrodes are sterilized in 70% alcohol and place on a sterile drape. A sterile scalpel blade is used to make a midline scalp incision beginning from a point even with the eyes and extending back to and imaginary line connecting the ear. The fascia should be gently split and pulled away by from the scalp. The incision can be held open using retractors/forceps. […]

C[C@@H](Oc1cc(Cl)cc(C(F)(F)F)c1)C(N)=O [I(D), (2R)-2-[3-chloro-5-(trifluoromethyl)-phenoxy]propanamide]
Duration (sec) ± SD (afterdischarge) (10 mg/kg i.p.): 158.5 ± 21.5 s
N/F, number of animals active over the number tested (10 mg/kg i.p.): 0/2
Seizure Score ± SEM (10 mg/kg i.p.): 5 ± 0.0
Duration (sec) ± SD (afterdischarge) (25 mg/kg i.p.): 71.0 ± 13.61 s
N/F, number of animals active over the number tested (25 mg/kg i.p.): 1/5
Seizure Score ± SEM (25 mg/kg i.p.): 4.4 ± 0.6
Duration (sec) ± SD (afterdischarge) (37.5 mg/kg i.p.): 54.2 ± 10.38 s
N/F, number of animals active over the number tested (37.5 mg/kg i.p.): 3/5
Seizure Score ± SEM (37.5 mg/kg i.p.): 3.2 ± 0.75
Duration (sec) ± SD (afterdischarge) (50 mg/kg i.p.): 71.0 ± 13.61 s
N/F, number of animals active over the number tested (50 mg/kg i.p.): 6/6
Seizure Score ± SEM (50 mg/kg i.p.): 0.83 ± 0.17
EC50, reduction of seizure score (seizure severity) (i.p., LTG-resistant kindled rats): 32.55 ± 3.58 mg/kg
